Test results: patent US7807845B2, “Resistance-repellent retroviral protease inhibitors” (priority 2004, dated 2010)

How the values were obtained:
[1] = test system: HIVmutant10 (16 mutations); test: Antiviral assay in MT-4 cells (MTT), mutant 10 virus; assay type: cell-based, HIV; conditions: Human immunodeficiency virus 1, MT4, 120 h, read-out: IC50 Mutant 10
Protocol: (§1) MT-4 cells were obtained from the AIDS Research and Reference Reagent Program (ARRRP, Division of AIDS, NIAID, NIH: MT-4 from Dr. D. Richman). Cells were propagated in RPMI 1640 supplemented with 10% fetal bovine serum, 50U of penicillin and 50 μg of streptomycin per ml (Invitrogen, Carlsbad Calif.). The following HIV viruses were used for testing of antiviral potency of compounds: WT=HIVHXB2; recombinant HIVHXB2 virus from drug resistant patient isolates; HIVmutant10 (16 mutations); HIVmutant8 (14 mutations); HIVmutant9 (10 mutations).
(§2) The potency of test compound was determined as previously described (ref 1-3) with minor modifications. MT-4 cells (1.5×10^4/ml) were exposed to 200 50 % tissue culture infective doses (TCID50) of viruses in the presence of various concentrations of test compound in 96 well microtiter plates and incubated at 37° C. for 5 days. 3-(4,5-dimethylthiazol-2-yl)-2,5-diphenytetrazolium bromide (MTT) solution was added to a final concentration of 0.75 mg/ml, and plates were incubated 1 hour. After incubation cells were dissolved in isopropanol/Triton-X 100/HCl (1000:50:25) solution. Absorbance was monitored in a microplate reader (Spectramax, Molecular Devices) at 540 nm and 690 nm. Cytotoxicity of compounds was tested in a similar assay in the absence of virus.

[2] = test system: HIVmutant9 (10 mutations); test: Antiviral assay in MT-4 cells (MTT), mutant 9 virus; assay type: cell-based, HIV; conditions: Human immunodeficiency virus 1, MT4, 120 h, read-out: IC50 Mutant 9
Protocol: as §1, §2

[3] = molecular target: mutant HIV PR (Mutant 8) (Human immunodeficiency virus type 1 group M subtype B, UniProt P04585); test: HIV PR inhibition assay, Mutant 8; assay type: biochemical; conditions: read-out: Ki Mutant 8; recombinant mutant HIV PR, fluorogenic substrate, pH 6.5
Protocol: (§3) Expression and purification of WT and mutant HIV PR. Recombinant wild type and mutant HIV PRs were expressed using pET21 vector (Novagen) in E. coli cells, and purified and refolded as described previously (Gulnik et al, 1995). The cells were resuspended in 50 mM tris-HCl buffer, pH 8.0, 25 mM NaCl, 0.2% β-mercaptoethanol (buffer A), sonicated and centrifuged. Inclusion bodies were washed first with buffer A, then with buffer A containing respectively 0.1% Triton X-100, 1 M NaCl, 1 M urea, and finally with buffer A alone. Purified inclusion bodies were solubilized by addition of buffer A containing 8 M urea at room temperature. The solution was clarified by centrifugation and loaded onto 2.6×9.5 cm Q-Sepharose column. Flow-through fractions were collected and dialyzed against 3 changes of refolding buffer, which consists of 25 mM Na-phosphate, pH 7.0, 25 mM NaCl, 0.2% β-mercaptoethanol and 10% glycerol, aliquoted and stored at −80° C.
(§4) Inhibition constants were determined using the fluorogenic substrate ArgGlu(EDANS)[…]DABCYL)Arg (Amichem, USA). HIV Protease was preincubated for 0.5-1 min at ambient temperature on a 96 well plate with different concentrations of inhibitor in 0.05 M sodium phosphate buffer, pH 6.5, containing 20 mM NaCl, 2 mM DTT and 0.01% Tween-20. The reaction was initiated by the addition of substrate. Final enzyme concentration was 2-5 nM for WT and 2-30 nM for mutants. Substrate concentration was 20 uM and DMSO concentration 2%. The increase in fluorescence intensity at the emission maximum of 520 nm (excitation wavelength 340 nm, cut-off filter 495 nm) was monitored as a function of time using a Spectramax Gemini fluorescence plate reader (Molecular Devices, CA USA). The initial rate of hydrolysis was calculated by first-degree polynomial fit using SoftMAX operating software. Data were fitted to the Michaelis-Menten equation for competitive inhibitors. For tight-binding inhibitors the data were fitted by nonlinear regression analysis to the equation V=V0/2Et({[Ki(1+S/Km)+It−Et]^2+4Ki(1+S/Km)Et}^1/2−[Ki(1+S/Km)+It−Et]) (Williams and Morrison, 1979) with the program GraFit, version 5 (Erithacus Software Limited, UK), where V and V0 are initial velocities with and without inhibitor, Km is the Michaelis-Menten constant and S, Et and It are the concentrations of substrate, active enzyme and inhibitor respectively.

[4] = molecular target: mutant HIV PR (Mutant 9) (Human immunodeficiency virus type 1 group M subtype B, UniProt P04585); test: HIV PR inhibition assay, Mutant 9; assay type: biochemical; conditions: read-out: Ki Mutant 9; recombinant mutant HIV PR, fluorogenic substrate, pH 6.5
Protocol: as §3, §4

[5] = test system: HIVmutant8 (14 mutations); test: Antiviral assay in MT-4 cells (MTT), mutant 8 virus; assay type: cell-based, HIV; conditions: Human immunodeficiency virus 1, MT4, 120 h, read-out: IC50 Mutant 8
Protocol: as §1, §2

[6] = test system: WT=HIVHXB2; test: Antiviral assay in MT-4 cells (MTT), WT virus; assay type: cell-based, HIV; conditions: Human immunodeficiency virus 1, MT4, 120 h, HIVHXB2, 5 days
Protocol: as §1, §2

[7] = molecular target: mutant HIV PR (Mutant 10) (Human immunodeficiency virus type 1 group M subtype B, UniProt P04585); test: HIV PR inhibition assay, Mutant 10; assay type: biochemical; conditions: read-out: Ki Mutant 10; recombinant mutant HIV PR, fluorogenic substrate, pH 6.5
Protocol: as §3, §4

[8] = molecular target: T1, wild type HIV PR (Human immunodeficiency virus type 1 group M subtype B, UniProt P04585); test: HIV PR inhibition assay, wild type; assay type: biochemical
T1 construct: Recombinant wild type and mutant HIV PRs were expressed using pET21 vector (Novagen) in E. coli cells; made in house
Protocol: as §3, §4

SMILES	IC50 [1] [nM]	IC50 [2] [nM]	Ki [3] [nM]	Ki [4] [nM]	IC50 [5] [nM]	IC50 [6] [nM]	Ki [7] [nM]	Ki [8] [nM]
CC(C)CN(C[C@@H](O)[C@H](Cc1ccccc1)NC(=O)O[C@H]1CO[C@H]2OCC[C@H]21)S(=O)(=O)c1ccc2c(c1)/C(=C/NCC(C)(C)C)C(=O)N2 [Compound 22, [1-Benzyl-3-({3-[(2,2-dimethyl-propylamino)-methylene]-2-oxo-2,3-dihydro-1H-indole-5-sulfonyl}-isobutyl-amino)-2-hydroxy-propyl]-carbamic acid hexahydro-furo[2,3b]furan-3-yl ester]	27	9.5	< 0.3	0.15	13	4.5	< 1	< 0.1
CC(NCC(F)(F)F)=C1C(=O)Nc2ccc(S(=O)(=O)N(CC(C)C)CC(O)C(Cc3ccccc3)NC(=O)OC3COC4OCCC34)cc21 (stereo not shown) [Compound 45, [1-Benzyl-2-hydroxy-3-(isobutyl-{2-oxo-3-[1-(2,2,2-trifluoro-ethylamino)-ethylidene]-2,3-dihydro-1H-indole-5-sulfonyl}-amino)-propyl]-carbamic acid hexahydro-furo[2,3-b]furan-3-yl ester]	52		< 0.3	< 0.1	26	13	3.1	< 0.1
CCCCN(C=C1C(=O)Nc2ccc(S(=O)(=O)N(CC(C)C)CC(O)C(Cc3ccccc3)NC(=O)OC3COC4OCCC34)cc21)CC (stereo not shown) [Compound 118]	60	15	< 0.3	< 0.1	40	13	1.9	< 0.1
CCOC(=O)CN(C=C1C(=O)Nc2ccc(S(=O)(=O)N(CC(C)C)CC(O)C(Cc3ccccc3)NC(=O)OC3COC4OCCC34)cc21)Cc1ccccc1 (stereo not shown) [Compound 138]	16	15	< 0.3	0.11		31	1.9	< 0.1
CCCN(C=C1C(=O)Nc2ccc(S(=O)(=O)N(CC(C)C)CC(O)C(Cc3ccccc3)NC(=O)OC3COC4OCCC34)cc21)CCC (stereo not shown) [Compound 32, {1-Benzyl-3-[(3-dipropylaminomethylene-2-oxo-2,3-dihydro-1H-indole-5-sulfonyl)-isobutyl-amino]-2-hydroxy-propyl}-carbamic acid hexahydro-furo[2,3-b]furan-3-yl ester]	58	12	< 0.3	< 0.1	24	10	< 1	< 0.1
CCc1cccc(NC=C2C(=O)Nc3ccc(S(=O)(=O)N(CC(C)C)CC(O)C(Cc4ccccc4)NC(=O)OC4COC5OCCC45)cc32)n1 (stereo not shown) [Compound 112]	200	30	< 0.3	0.17	50	7	6.4	< 0.1
